Usually LD50 stands for the dose at which mortality reaches 50%.

Data on twelve molecules can be found in patent publication US4406908A, “Tetrazolylcoumarin derivatives and antiallergic compositions containing the same” (Kakenyaku Kako Co., Ltd., priority 1980, dated 1983).

For series [1], the system named is passive cutaneous anaphylaxis (PCA) mediated by homocytotropic antibodies (HTA). The series is described as follows: antiallergic activity: passive cutaneous anaphylaxis (PCA) mediated by homocytotropic antibodies (HTA) in rats. Type of series: in vivo, rat (Wister). The following applies: Rattus norvegicus, given orally 30 minutes before antigen challenge, minimum dose that decreased statistically significantly the amount of leaked dye comparing with control, 72 hr. PCA, read-out: MED. As for the experimental part: With respect to the 3-(1H-tetrazol-5-yl)-coumarin derivatives obtained in Examples 1 to 12, there was tested antiallergic activity concerning passive cutaneous anaphylaxis (PCA) mediated by homocytotropic antibodies (HTA) in rats.
2,4-Dinitrophenyl-coupled ascaris extract (DNP-As) used as antigen, was prepared according to the methods of Strejan et al [cf. J. Immunol., Vol. 98, 893(1967)] and Eisen [cf. J. Amer. Chem. Soc., Vol. 75, 4593(1953)]. Antisera containing HTA were prepared in rats according to the method of Tada and Okumura [cf, J. Immunol., Vol. 106, 1002(1971)] as follows:
Wister rats weighing 180 to 200 g. were splenectomized and several days later immunized by injecting into all four footpads a total of 1 mg. of DNP-As mixed with 10^10 Bordetella pertussis. After 5 days, 0.5 mg. of DNP-As alone was injected subcutaneously into the back of rats. Eight days after the first immunization, blood was collected by aortic puncture under ether anaesthesea and antisera obtained by these procedures were pooled and stored at -80° C.
The titer of the pooled autiserum was determined in rats by the 72 hr. PCA which method was described in the following item (ii), i.e. the highest dilution of antiserum producing a diameter of approximately 5 mm. was usually 1:500.
Normal wister rats weighing 140 to 160 g. were sensitized passively by injection intradermal on the shaved back skin 0.05 ml. of the diluted antisera (1:30). After 72 hours, the animals were injected intravenously 1 ml. of physiological salt solution containing 2 mg. DNP-As and 2.5 mg. Evans' blue.
The present compounds to be tested were given orally 30 minutes before antigen challenge. The animals were exsanguinated 30 minutes after challenge with the antigens and the skins were exfoliated. The intensities of PCA were evaluated by measuring the amount of leaked dye. The amount of dye leaked as a result of PCA was extracted according to the method of Harada et al [cf. Jpn.

A further series can be described thus: acute toxicity in mice. The following applies: mouse, in vivo, po, orally, suspended in 10% gum arabic solution, 6 days observation, method of Litchfield-Wilcoxon. The protocol: With respect to the 3-(1H-tetrazol-5-yl)-coumarin derivatives obtained in Examples 1 to 12, there was tested acute toxicity in mice.
After normal female Slc: ddy mice 4 weeks old were purchased and fed preliminarily in this lavoratory for a week, these mice weighing 25-27 g. were used in the test. The present compounds to be tested, were suspended in a 10% gum arabic solution and administered orally […]. body weight to mice. Each dose level was given to a group of ten animals and the survivors were kept under observation for 6 days. The numbers of dead animals were counted and the LD50 values in mg./kg. body weight were calculated by the method of Litchfield-Wilcoxon.

For the molecule `C=CCOCCOc1cccc2cc(-c3nnn[nH]3)c(=O)oc12` [Ex. 10, 8-(3-Oxa-5-hexenyloxy)-3-(1H-tetrazol-5-yl)-coumarin], the minimal effective dose in series [1] came out at 6.25 mg/kg. The same molecule returned an LD50 at 144 h in the series “acute toxicity in mice” of 1500 to 2000 mg/kg.
In the case of `CC(C)OCCOc1cccc2cc(-c3nn[nH]n3)c(=O)oc12` [Ex. 5], the minimal effective dose in series [1] was 6.25 mg/kg. Also, the LD50 at 144 h in the series “acute toxicity in mice” turned out to be 1500 mg/kg.
`CCOCCOc1cccc2cc(-c3nnn[nH]3)c(=O)oc12` [Ex. 3, 8-(3-Oxapentyloxy)-3-(1H-tetrazol-5-yl)coumarin]: the minimal effective dose in series [1] stood at 0.39 mg/kg. The LD50 at 144 h in “acute toxicity in mice” came to 1500 mg/kg.
For `CC(C)COCCOc1cccc2cc(-c3nnn[nH]3)c(=O)oc12` [Ex. 7, 8-(5-Methyl-3-oxahexyloxy)-3-(1H-tetrazol-5-yl)coumarin], in that order: 6.25 mg/kg and greater than 2000 mg/kg.
For `O=c1oc2c(OCCOc3ccccc3)cccc2cc1-c1nnn[nH]1` [Ex. 12, 8-(2-Phenoxyethyloxy)-3-(1H-tetrazol-5-yl)-coumarin], in that order: 1.56 mg/kg and greater than 2000 mg/kg.
`O=c1oc2c(OCCCO)cccc2cc1-c1nnn[nH]1` [Ex. 1, 8-(3-Hydroxypropoxy)-3-(1H-tetrazol-5-yl)coumarin]: the LD50 at 144 h in “acute toxicity in mice” is greater than 2000 mg/kg.
As to `CCCOCCOc1cccc2cc(-c3nnn[nH]3)c(=O)oc12` [Ex. 4, 8-(3-Oxahexyloxy)-3-(1H-tetrazol-5-yl)coumarin], the minimal effective dose in series [1] was determined as 1.56 mg/kg. This molecule gave a 50% lethal dose (LD50) at 144 h in the series “acute toxicity in mice” of 1500 to 2000 mg/kg.
Turning to `CCOCCOCCOc1cccc2cc(-c3nn[nH]n3)c(=O)oc12` [Ex. 11, 8-(3,6-Dioxaoctyloxy)-3-(1-H-tetrazol-5-yl)-coumarin], the minimal effective dose in series [1] came to 1.56 mg/kg. Besides, the LD50 at 144 h in “acute toxicity in mice” is greater than 2000 mg/kg.
For `CCOCCCOc1cccc2cc(-c3nnn[nH]3)c(=O)oc12` [Ex. 8, 8-(4-Oxahexyloxy)-3-(1H-tetrazol-5-yl)coumarin], in that order: 6.25 mg/kg and greater than 2000 mg/kg.
In the case of `CCOCCCCOc1cccc2cc(-c3nnn[nH]3)c(=O)oc12` [Ex. 9, 8-(5-Oxaheptyloxy)-3-(1H-tetrazol-5-yl)coumarin], the minimal effective dose in series [1] was determined as 0.39 mg/kg. The same molecule came in with an LD50 at 144 h in the series “acute toxicity in mice” greater than 2000 mg/kg.
As to `COCCOc1cccc2cc(-c3nnn[nH]3)c(=O)oc12` [Ex. 2, 8-(3-Oxabutoxy)-3-(1H-tetrazol-5-yl)coumarin], the minimal effective dose in series [1] worked out at 1.56 mg/kg. Besides, the LD50 at 144 h in “acute toxicity in mice” is 1500 to 2000 mg/kg.
For `CCCCOCCOc1cccc2cc(-c3nnn[nH]3)c(=O)oc12` [Ex. 6, 8-(3-Oxaheptyloxy)-3(1H-tetrazol-5-yl)coumarin], in that order: 6.25 mg/kg and greater than 2000 mg/kg.
